The record followed here is US20260293901A1 (priority 2023, published 2026).

For orientation: inhibition means the percentage by which the read-out fell short of the control.

Assay [1] relates to Plasmopara viticola. It counts as in vivo. The settings on record: 200 ppm; grape vine leaf disks, preventative; inoculated 1 day after application; assessed 6-8 days after application.
The subject of assay [2] is Phytophthora infestans. Format: in vivo. Particulars: 200 ppm; tomato leaf disks, preventative; inoculated 1 day after application; assessed 5-7 days after application.
Assay [3] has as its system Pythium ultimum. As to the kind of experiment: Pythium ultimum/Liquid Culture (Seedling Damping Off). It counts as cell-based. Particulars: Globisporangium ultimum, read-out: control of Pythium ultimum (inhibition of growth determined photometrically).

SMILES strings stand for the structures.

With `COC(=O)Nc1ccc(-c2cnc3c(C)cc(C(=O)N(C)c4ccc(F)c(C)c4)nn23)cn1` [Compound 1, methyl N-[5-[6-[(4-fluoro-3-methyl-phenyl)-methyl-carbamoyl]-8-methyl-imidazo[1,2-b]pyridazin-3-yl]-2-pyridyl]carbamate], the “control of Plasmopara viticola (percent disease control compared to untreated)” value in assay [1] is reported as “at least 80%”.
As to `COC(=O)Nc1ccc(-c2cnc3c(C)cc(C(=O)N4CCCc5cc(F)ccc54)nn23)cn1` [Compound 2, methyl N-[5-[6-(6-fluoro-3,4-dihydro-2H-quinoline-1-carbonyl)-8-methyl-imidazo[1,2-b]pyridazin-3-yl]-2-pyridyl]carbamate], the “control of Phytophthora infestans (percent disease control compared to untreated)” value in assay [2] was “at least 80%”.
With `COC(=O)Nc1ccc(-c2cnc3c(C)cc(C(=O)N(C)c4ccc(F)cc4)nn23)cn1` [Compound 3, methyl N-[5-[6-[(4-fluorophenyl)-methyl-carbamoyl]-8-methyl-imidazo[1,2-b]pyridazin-3-yl]-2-pyridyl]carbamate], in assay [1], the “control of Plasmopara viticola (percent disease control compared to untreated)” value was “at least 80%”. The “control of Phytophthora infestans (percent disease control compared to untreated)” value in assay [2] is “at least 80%”.
Consider `COC(=O)Nc1ccc(-c2cnc3c(C)cc(C(=O)N(C)c4ccc(F)c(OC)c4)nn23)cn1` [Compound 4, methyl N-[5-[6-[(4-fluoro-3-methoxy-phenyl)-methyl-carbamoyl]-8-methyl-imidazo[1,2-b]pyridazin-3-yl]-2-pyridyl]carbamate], for which, in assay [3], the inhibition at 20 ppm is not below 80%. Further, the “control of Plasmopara viticola (percent disease control compared to untreated)” value in assay [1] is on record as “at least 80%”. Also, in assay [2], the “control of Phytophthora infestans (percent disease control compared to untreated)” value was “at least 80%”.
Regarding `COC(=O)Nc1ccc(-c2cnc3ccc(C(=O)N(C)c4ccc(F)c(OC)c4)nn23)cn1` [Compound 8, methyl N-[5-[6-[(4-fluoro-3-methoxy-phenyl)-methyl-carbamoyl]imidazo[1,2-b]pyridazin-3-yl]-2-pyridyl]carbamate], in assay [3], the inhibition at 20 ppm was not below 80%. Besides, the “control of Plasmopara viticola (percent disease control compared to untreated)” value in assay [1] is on record as “at least 80%”. In assay [2], the “control of Phytophthora infestans (percent disease control compared to untreated)” value was “at least 80%”.
